“Also recorded” adds a separate entry of the source.
Assays:
[1] = Acute toxicity in rats, endoperitoneal administration (LD50); format: in vivo; settings: rat, in vivo, ip
Protocol: (§1) 200 albino rats, 100 male and 100 female, of the Wistar strain and weighing 130-150 grams were divided into groups of 10 animals each.
(§2) After being caged for some days at constant temperature (21°±1° C.) and humidity (60±5%), the animals were fasted for 24 hours before treatment.
(§3) The MRAP2 was administered in a single administration either orally or endoperitoneally, following the method heretofore described.
(§4) Teh LD50 was evaluated for each method of administration using the Litchfield and Wilcoxon method, based on the percentage mortality recorded in each group of rats during the seven days following treatment.
(§5) Five groups of 20 animals, 10 male and 10 female were used.

[2] = test system: rats; assay: as above; format: in vivo; settings: 20 animals per dose
Protocol: as §1, §2, §3, §4, §5

[3] = test system: cardiovascular system of cats; assay: Effect on the cardiovascular system of cats; format: in vivo; settings: intravenous 5 mg/kg
Protocol: Three cats weighing 2.4-2.6 kg were used for this test. The MRAP2 was administered intravenously in a dose of 5 mg/kg, carried in a sterile physiological solution. The animals, under combined anaesthesia with ethylurethane and diallylbarbituric acid, were subjected to measurements, by means of the Battaglia-Rangoni polygraph, of the arterial pressure, the cardiac frequency, the nictitation and the electrocardiac activity, before and up to two hours after the administration of the drug.

[4] = test system: human PRP (Platelet Rich Plasma), platelet aggregation induced by ADP; assay: In vitro platelet antiaggregation activity (Born method, ADP-induced); format: cell-based
Protocol: The method described by Born (Nature, 194, 927, 1962) was followed for this test, based on the increase in the platelet aggregation induced by ADP. The experiment was conducted using a human PRP (Platelet Rich Plasma) pool from four healthy volunteers who had not taken any drugs for ten days. The PRP was adjusted to 280,000±20,000 and kept at ambient temperature for the entire duration of the test.
400 μl of PRP and 100 μl of MRAP2 dissolved in a physiological solution and adjusted to a pH of 7.4 were placed in plastic test tubes. Three doses of the drug in question (0.181, 0.904 and 1.818 mg/ml) were used.
Three dilutions of aspirin were prepared under the same conditions for use as a comparison drug. Two minutes after contact between the drug and PRP, the test tube was inserted into the aggregometer cell (EEI, Model 169 with Corning Recorder Mod.840). After 60 seconds, ADP (10^-3 mM) was added and the aggregation was recorded. In calculating the antiaggregation activity, reference was made to the maximum amplitude of the aggregation curved obtained with ADP. Assuming this amplitude to be 100, the amplitudes of the curves obtained with the various doses of MRAP2 and aspirin were calculated as a percentage.

[5] = test system: stomach (gastric lesion); assay: Ulcerogenic activity in rats after a single administration; format: in vivo, male albino rats, Wistar strain; settings: rats; for Average degree of lesion + E.E.: scale 0-7, controls 0.65 ± 0.1
Protocol: The ulcerogenic activity of MRAP2 was tested both after a single administration of the drug, and after prolonged administration.
In these tests, a total of 70 male albino rats of Wistar strain were used, having a weight of 200±20 grams.
The MRAP2 was administered diluted in tap water.
40 rats, fasted for 18 hours before the experiment, were divided into four batches of ten animals and treated orally as follows:
3rd group: MRAP2 (50 mg/kg)
4th group: MRAP2 (125 mg/kg).
The animals were killed after six hours. The stomach was withdrawn and the gastric lesion index was evaluated in terms of an arbitrary scale of values lying between 0. and 7 based on previous models proposed by other authors.
Furthermore, the treatment was randomised in order to eliminate any possible polarisation of the data.
The points given for gastric ulcerative lesions were as follows:
(1) hyperaemia or slight capillary obstruction; or slight loss of the epithelium; or some petechiae even with pale mucosa without hyperaemia;
(2) diffuse capillary obstructions or numerous petechiae; or diffuse loss of the epithelium; of a few surface lesions;
(3) strong submucosa haemorrhage; or many petechiae and small surface lesions; or much anaemic mucosa (yellowish colour); or up to three small ulcers;
(4) general pattern as in the previous numbers, plus up to ten small ulcers; or long erosions; or up to three medium sized ulcers;
(5) pattern as in number 4, with up to 15 small ulcers; or up to 6 large ulcers;
(6) pattern as previously, with up to ten large ulcers, plus small ulcers;
(7) pattern as previously, plus up to ten large ulcers and small ulcers; cases of perforated ulcers.

Cl.Clc1ccccc1CN1CCCC1 [MRAP2, N-(2-chlorobenzyl)-pyrrolidine hydrochloride]
mortality at 168 h ([1]; 50 mg/kg): 0%
mortality at 168 h ([1]; 100 mg/kg): 5%
mortality at 168 h ([1]; 200 mg/kg): 55%
mortality at 168 h ([1]; 300 mg/kg): 85%
mortality at 168 h ([1]; 400 mg/kg): 100%
LD50 at 168 h ([1]; single administration, 7 days, 95% limits 174-203): 188 mg/kg
No. of animals dead ([2]; 50 mg/kg): 0
No. of animals dead ([2]; 100 mg/kg): 1
No. of animals dead ([2]; 200 mg/kg): 11
No. of animals dead ([2]; 300 mg/kg): 17
No. of animals dead ([2]; 400 mg/kg): 20
hypertensive effect ([3]; in the four minutes following introduction of the drug): slight hypertensive effect
undesirable effects on the cardiovascular system ([3]; up to two hours): does not give rise to any undesirable effects on the cardiovascular system
inhibition of platelet aggregation at 181 µg/mL ([4]; Platelet, ADP 10^-3 mM, drug 0.181 mg/ml): 26%
activity at 181 µg/mL ([4]; Platelet, ADP 10^-3 mM, drug 0.181 mg/ml, serum + ADP = 100): 74%
inhibition of platelet aggregation at 904 µg/mL ([4]; Platelet, ADP 10^-3 mM, drug 0.904 mg/ml): 91%
activity at 904 µg/mL ([4]; Platelet, ADP 10^-3 mM, drug 0.904 mg/ml, serum + ADP = 100): 9%
inhibition of platelet aggregation at 1818 µg/mL ([4]; Platelet, ADP 10^-3 mM, drug 1.818 mg/ml): 92%
activity at 1818 µg/mL ([4]; Platelet, ADP 10^-3 mM, drug 1.818 mg/ml, serum + ADP = 100): 8%
platelet antiaggregation activity (in words) ([4]; in vitro, ADP, manifested by the dose of 0.904 mg/ml, comparison with aspirin, hydrochloride): considerable platelet antiaggregation activity; also recorded: clearly superior to that possessed by aspirin
Average degree of lesion + E.E. ([5]; single oral 50 mg/kg): 0.80 ± 0.1
Average degree of lesion + E.E. ([5]; single oral 125 mg/kg, P <0.05 with regard to controls): 1.15 ± 0.2
incidence of ulcerative lesions (in words) ([5]; single oral administration, relative to control animals): almost identical or slightly greater than that of the control animals
